We go through 1 compound from patent US20220079916A1, “USE OF GERANYLFLAVONE A IN PREPARATION OF DRUG FOR PROMOTING HEALING OF WOUNDS” (HANYI BIO-TECHNOLOGY COMPANY LTD., priority 2019, published 2022).

In assay [1] the test system is whole cortex wound of wild C57 adult male mice. Briefly: Experiment of skin wound healing (Example 2, wound without bacterial infection). Particulars: 10 mg/mouse mixed with 5 mg vaseline. The format is in vivo, mice (C57BL/6). The protocol:
Wild C57 adult male mice (C57BL/6, purchased from Vital River) were taken and anesthetized, and then subjected to backside unhairing to establish a whole cortex wound with a 6 mm biopsy puncher. Attention should be paid to disinfection for preventing infection.
A normal control group: 5 mice, no administration.
A group administrated with vaseline: vaseline (vaseline for medical purpose, purchased from Tianjin Zhiyuan Chemical Reagent Co., Ltd., the same below), 5 mg vaseline/mouse, 5 mice.
A group administrated with A drug A: 10 mg/mouse, 10 mice (as a flavonoid control, and the drug A was soybean isoflavones).
A group administrated with a drug B: 10 mg/mouse, 10 mice (as a flavonoid control, and the drug B was quercetin).
A group administrated with cannflavin A: cannflavin A, 10 mg/mouse, 10 mice. The administration modes of the latter 4 groups were all application onto the wound, and the administration was conducted once a day. Because vaseline was a commonly used ointment base^[8], in the latter 3 groups, the drug A, the drug B or cannflavin A were respectively well mixed with 5 mg of vaseline and then administered.
Photos were taken to record a wound healing condition of mice on days 0, 4 and 7 of administration, and the healing degree of a wound area was calculated by the PhotoShop software with 1 cm^2 as a scale. […]

In assay [2] the test system is whole cortex wound inoculated with Staphylococcus aureus, mice with type II diabetes. As to the kind of experiment: Healing of skin wound infected with Staphylococcus aureus (2), comparison with flavonoid controls (Example 4). Particulars: 10 mg/mouse mixed with 5 mg vaseline, once a day. The format is in vivo, mice (C57BL/6). The text has this:
normal mice as control and mice with type II diabetes established according to the method of Example 1 were taken, anesthetized, and then subjected to backside unhairing to establish a whole cortex wound with a 6 mm biopsy puncher. The mice were inoculated with 1.5×10^6 CFU/ml of Staphylococcus aureus. […]
The experimental method was the same as that of Example 3, except that the grouping and administration were as follows:
A normal control group: no administration, 5 mice.
A type II diabetes control group administrated with vaseline: vaseline, 5 mg vaseline/mouse, 5 mice.
A type II diabetes group administrated with vaseline+a drug A: 10 mg/mouse, 10 mice (as a flavonoid control, and the drug A was soybean isoflavones).
A type II diabetes group administrated with vaseline+a drug B: 10 mg/mouse, 10 mice (as a flavonoid control, and the drug B was quercetin).
A type II diabetes group administrated with vaseline+cannflavin A: […], 10 mice.
The aforementioned 5 groups were all inoculated with Staphylococcus aureus according to the previous step (1).
The administration modes of the latter 4 groups were all application onto the wound, and the administration was conducted once a day. In the latter 3 groups, the drug A, the drug B or cannflavin A were respectively well mixed with 5 mg of vaseline as an ointment base and then administered.

`O=c1c(O)c(-c2ccc(O)c(O)c2)oc2cc(O)cc(O)c12` [drug B, quercetin, reference compound]: the “time in which the wound basically healed” value in assay [1] (applied onto the wound once a day, normal mice, no infection) is “about 4 days”. Moreover, in assay [1] (once a day, days 0, 4 and 7), the “promoting the healing degree of wounds without bacterial infection, compared among drugs, vaseline and control” value was “no significant difference”. For the same compound, in assay [2], the “help to wound healing” value is on record as “could not help wound healing”.
